Laboratory results reported in patent US12391799B2, “Peptoid polymers and methods of use” (X-Therma, Inc., priority 2017, dated 2025).
Numbered stars: 1 amine (or outer) side, 2 acyl side, 3 side chain; on linkers, the order of the positions; unused ones are H or OH. Square brackets hold non-standard residues; d marks the D form. Peptide text beside a SMILES is read from it. X1 = CC(O)CN(CC(=O)[*:2])[*:1]; N(iPr)Gly = CC(C)NCC(=O)O; NBuGly = CCCCNCC(=O)O; Nleu = CC(C)CNCC(=O)O

Assays:
[1] = Vitrification screening assay (critical EG concentration); format: physicochemical; conditions: for Critical Ethylene Glycol Concentration: lowest EG for complete vitrification of 20 μL sample, 5 mg/mL peptoid in formulation, liquid nitrogen immersion; for EG required to permit vitrification: 20 μL sample, 5 mg/mL peptoid, formulation without peptoid needs 20% or more EG
Protocol: As another means of increasing the throughput of library analysis, a vitrification screening assay was performed to evaluate anti-icing efficacy. For these experiments the compounds named “Compound 11,” “Compound 12,” “Compound 25,” Compound 26,” “Compound 27,” “Compound 28,” “Compound 60,” “Compound 62,” “Compound 63,” “Compound 64,” “Compound 69,” “Compound 70,” “Compound 71,” “Compound 72,” “Compound 73,” “Compound 74,” “Compound 75,” “Compound 76,” “Compound 77,” “Compound 78,” “Compound 81,” “Compound 82,” “Compound 83,” “Compound 84,” and “Compound 85” were tested.
For these experiments, 20 μL samples were flash frozen by liquid immersion in liquid nitrogen. Ethylene glycol (EG) concentrations between 5% and 25% (v/v) were used. A concentration of 5 mg/mL of peptoid polymer compounds were used in formulation. Table 12 lists the lowest concentration of EG necessary to bring about complete vitrification of a 20 μL sample with peptoid polymer in formulation, referred to as the “critical EG concentration.” A sample of formulation without the presence of a peptoid polymer was only able to bring about vitrification at 20% or more EG. Peptoid polymers of interest were able to bring about vitrification within formulas containing EG when the concentration of EG was lower than 20%.

[2] = Crystallographic x-ray diffraction (XRD) ice crystal formation assay; format: physicochemical; conditions: 1 and 5 mg/mL peptoid, EG 15-30% (v/v)
Protocol: In order to increase the throughput of library analysis, a crystallographic x-ray diffraction (XRD) technique was used to evaluate ice crystal formation. For these experiments, the compounds named “Compound 2,” “Compound 8,” “Compound 10,” “Compound 11,” “Compound 12,” “Compound 13,” and “Compound 58” were tested. Compound 58 is similar to Compound 12, except that an arginine amino acid has been appended to the N-terminal end.
For these experiments, EG concentrations between 15% and 30% (v/v) were used. Typically, EG, DMSO, and other cryoprotectants are used during XRD sample analysis at concentrations of 35-40% (v/v) to vitrify solutions and avoid diffraction interference from ice crystals. Concentrations of 1 and 5 mg/mL of the peptoid and peptoid-peptide compounds were used. FIGS. 3A, 3B, and 3C illustrate exemplary XRD data under conditions of complete vitrification, partial vitrification with the presence of cubic ice, and freezing ([…]), respectively. FIG. 3D provides ice rings scores for a variety of EG concentrations and two concentrations of Compounds 2, 8, and 12.
“IceRing1” and “IceRing2” refer to ice formation scores, which range between 0 (no ice formation) and 15 (large ice formation).

CCCCNCC(=O)N(CCCC)CC(=O)N(CC(=O)N(CC(=O)N(CCCC)CC(=O)N(CCCC)CC(=O)N(CC(=O)N(CC(=O)N(CCCC)CC(=O)N(CCCC)CC(N)=O)CC(C)O)CC(C)O)CC(C)O)CC(C)O (stereo not drawn) [Compound 26, Nbu-Nbu-Nhp-Nhp-Nbu-Nbu-Nhp-Nhp-Nbu-Nbu] (H-[NBuGly][NBuGly][X1][X1][NBuGly][NBuGly][X1][X1][NBuGly][NBuGly]-NH2)
Critical Ethylene Glycol Concentration [1]: 15.0% (ν/ν)

CC[C@@H](C)NCC(=O)N(CC(=O)N(CC(=O)N(CC(=O)N(CC(=O)N(CC(=O)N(CC(=O)N(CC(=O)N(CC(=O)N(CC(N)=O)[C@H](C)CC)[C@H](C)CC)C[C@H](C)O)C[C@H](C)O)[C@H](C)CC)[C@H](C)CC)C[C@H](C)O)C[C@H](C)O)[C@H](C)CC [Compound 78, Nbr-Nbr-Nsh-Nsh-Nbr-Nbr-Nsh-Nsh-Nbr-Nbr]
Critical Ethylene Glycol Concentration [1]: 15.0% (ν/ν)

CCC(C)NCC(=O)N(CC(=O)N(CC(=O)N(CC(=O)N(CC(=O)N(CC(=O)N(CC(=O)N(CC(=O)N(CC(=O)N(CC(N)=O)C(C)CC)C(C)CC)C(C)CC)CC(C)O)C(C)CC)C(C)CC)CC(C)O)CC(C)O)C(C)CC (stereo not drawn) [Compound 69, Nsb-Nsb-Nhp-Nhp-Nsb-Nsb-Nhp-Nsb-Nsb-Nsb]
Critical Ethylene Glycol Concentration [1]: 15.0% (ν/ν)

CCC(C)NCC(=O)N(CC(=O)N(CC(=O)N(CC(=O)N(CC(=O)N(CC(=O)N(CC(=O)N(CC(=O)N(CC(=O)N(CC(=O)N(CC(=O)N(CC(=O)N(CC(=O)N(CC(N)=O)C(C)CC)C(C)CC)CC(C)O)CC(C)O)C(C)CC)C(C)CC)CC(C)O)CC(C)O)C(C)CC)C(C)CC)CC(C)O)CC(C)O)C(C)CC (stereo not drawn) [Compound 83, Nsb-Nsb-Nhp-Nhp-Nsb-Nsb-Nhp-Nhp-Nsb-Nsb-Nhp-Nhp-Nsb-Nsb]
EG required to permit vitrification [1]: required significantly less EG in order to permit vitrification | Critical Ethylene Glycol Concentration [1]: 10.0% (ν/ν)

CCC(C)NCC(=O)N(CC(=O)N(CC(=O)N(CC(=O)N(CC(=O)N(CC(=O)N(CC(=O)N(CC(=O)N(CC(=O)N(CC(N)=O)CC(C)O)CC(C)O)CC(C)O)C(C)CC)CC(C)O)CC(C)O)CC(C)O)CC(C)O)CC(C)O (stereo not drawn) [Compound 8, Nsb-Nhp-Nhp-Nhp-Nhp-Nhp-Nsb-Nhp-Nhp-Nhp]
reduction of necessary EG concentration while preventing ice formation (XRD ice ring scores) [2]: significantly reduced necessary EG concentrations while preventing ice formation

CCC(C)NCC(=O)N(CC(=O)N(CC(=O)N(CC(=O)N(CC(=O)N(CC(=O)N(CC(=O)N(CC(=O)N(CC(=O)N(CC(=O)N(CC(=O)N(CC(=O)N(CC(=O)N(CC(=O)N(CC(=O)N(CC(=O)N(CC(=O)N(CC(N)=O)C(C)CC)C(C)CC)CC(C)O)CC(C)O)C(C)CC)C(C)CC)CC(C)O)CC(C)O)C(C)CC)C(C)CC)CC(C)O)CC(C)O)C(C)CC)C(C)CC)CC(C)O)CC(C)O)C(C)CC (stereo not drawn) [Compound 84, Nsb-Nsb-Nhp-Nhp-Nsb-Nsb-Nhp-Nhp-Nsb-Nsb-Nhp-Nhp-Nsb-Nsb-Nhp-Nhp-Nsb-Nsb]
EG required to permit vitrification [1]: required significantly less EG in order to permit vitrification | Critical Ethylene Glycol Concentration [1]: 12.5% (ν/ν)

CCC(C)NCC(=O)N(CC(=O)N(CC(=O)N(CC(=O)N(CC(=O)N(CC(N)=O)C(C)CC)C(C)CC)CC(C)O)CC(C)O)C(C)CC (stereo not drawn) [Compound 81, Nsb-Nsb-Nhp-Nhp-Nsb-Nsb]
Critical Ethylene Glycol Concentration [1]: 15.0% (ν/ν)

CCC(C)NCC(=O)N(CC(=O)N(CC(=O)N(CC(=O)N(CC(=O)N(CC(=O)N(CC(=O)N(CC(=O)N(CC(=O)N(CC(N)=O)C(C)CC)C(C)CC)CC(C)O)CC(C)O)C(C)CC)C(C)CC)CC(C)O)C(C)CC)C(C)CC (stereo not drawn) [Compound 72, Nsb-Nsb-Nsb-Nhp-Nsb-Nsb-Nhp-Nhp-Nsb-Nsb]
Critical Ethylene Glycol Concentration [1]: 17.5% (ν/ν)

CC(C)CNCC(=O)N(CC(=O)N(CC(=O)N(CC(=O)N(CC(=O)N(CC(=O)N(CC(=O)N(CC(=O)N(CC(=O)N(CC(N)=O)CC(C)C)CC(C)C)CC(C)O)CC(C)O)CC(C)C)CC(C)C)CC(C)O)CC(C)O)CC(C)C (stereo not drawn) [Compound 25, Nib-Nib-Nhp-Nhp-Nib-Nib-Nhp-Nhp-Nib-Nib] (H-[Nleu][Nleu][X1][X1][Nleu][Nleu][X1][X1][Nleu][Nleu]-NH2)
Critical Ethylene Glycol Concentration [1]: 12.5% (ν/ν)

CCC(C)NCC(=O)N(CC(=O)N(CC(=O)N(CC(=O)N(CC(=O)N(CC(=O)N(CC(=O)N(CC(=O)N(CC(=O)N(CC(N)=O)CC(C)O)C(C)CC)C(C)CC)C(C)CC)CC(C)O)CC(C)O)CC(C)O)C(C)CC)C(C)CC (stereo not drawn) [Compound 2, Nsb-Nsb-Nsb-Nhp-Nhp-Nhp-Nsb-Nsb-Nsb-Nhp]
reduction of necessary EG concentration while preventing ice formation (XRD ice ring scores) [2]: significantly reduced necessary EG concentrations while preventing ice formation

CCC(C)N(CC(N)=O)C(=O)CN(C(=O)CN(CC(C)O)C(=O)CN(CC(C)O)C(=O)CN(C(=O)CN(C(=O)CN(CC(C)O)C(=O)CNCC(C)O)C(C)CC)C(C)CC)C(C)CC (stereo not drawn) [Compound 82, Nhp-Nhp-Nsb-Nsb-Nhp-Nhp-Nsb-Nsb]
EG required to permit vitrification [1]: required significantly less EG in order to permit vitrification | Critical Ethylene Glycol Concentration [1]: 12.5% (ν/ν)

CCC(C)N(CC(=O)N(CC(=O)N(CC(=O)N(CC(=O)N(CC(=O)N(CC(=O)N(CC(=O)N(CC(=O)N(CC(=O)N(CC(N)=O)C(C)CC)C(C)CC)CC(C)O)CC(C)O)C(C)CC)C(C)CC)CC(C)O)CC(C)O)C(C)CC)C(C)=O (stereo not drawn) [Compound 60, Ac-Nsb-Nsb-Nhp-Nhp-Nsb-Nsb-Nhp-Nhp-Nsb-Nsb]
EG required to permit vitrification [1]: required significantly less EG in order to permit vitrification | Critical Ethylene Glycol Concentration [1]: 12.5% (ν/ν)

CCC(C)NCC(=O)N(CC(=O)N(CC(=O)N(CC(=O)N(CC(=O)N(CC(=O)N(CC(=O)N(CC(=O)N(CC(=O)N(CC(N)=O)C(C)CC)C(C)CC)Cc1ccco1)Cc1ccco1)C(C)CC)C(C)CC)Cc1ccco1)Cc1ccco1)C(C)CC (stereo not drawn) [Compound 73, Nsb-Nsb-Nff-Nff-Nsb-Nsb-Nff-Nff-Nsb-Nsb]
Critical Ethylene Glycol Concentration [1]: 20.0% (ν/ν)

CCC(C)NCC(=O)N(CC(=O)N(CC(=O)N(CC(=O)N(CC(=O)N(CC(=O)N(CC(=O)N(CC(=O)N(CC(=O)N(CC(N)=O)C(C)CC)C(C)CC)CC1CCCO1)CC1CCCO1)C(C)CC)C(C)CC)CC1CCCO1)CC1CCCO1)C(C)CC (stereo not drawn) [Compound 63, Nsb-Nsb-Ntf-Ntf-Nsb-Nsb-Ntf-Ntf-Nsb-Nsb]
Critical Ethylene Glycol Concentration [1]: 15.0% (ν/ν)

CC(O)CN(CC(=O)N(CC(=O)N(CC(=O)N(CC(=O)N(CC(=O)N(CC(=O)N(CC(=O)N(CC(N)=O)C(C)C)C(C)C)CC(C)O)CC(C)O)C(C)C)C(C)C)CC(C)O)C(=O)CN(C(=O)CNC(C)C)C(C)C (stereo not drawn) [Compound 28, Nip-Nip-Nhp-Nhp-Nip-Nip-Nhp-Nhp-Nip-Nip] (H-[N(iPr)Gly][N(iPr)Gly][X1][X1][N(iPr)Gly][N(iPr)Gly][X1][X1][N(iPr)Gly][N(iPr)Gly]-NH2)
Critical Ethylene Glycol Concentration [1]: 15.0% (ν/ν)

CCC(C)NCC(=O)N(CC(=O)N(CC(=O)N(CC(=O)N(CC(=O)N(CC(=O)N(CC(=O)N(CC(=O)N(CC(=O)N(CC(N)=O)C(C)CC)C(C)CC)CC(C)O)C(C)CC)C(C)CC)C(C)CC)CC(C)O)CC(C)O)C(C)CC (stereo not drawn) [Compound 70, Nsb-Nsb-Nhp-Nhp-Nsb-Nsb-Nsb-Nhp-Nsb-Nsb]
Critical Ethylene Glycol Concentration [1]: 15.0% (ν/ν)

CCC(C)NCC(=O)N(CC(=O)N(CC(=O)N(CC(=O)N(CC(=O)N(CC(=O)N(CC(=O)N(CC(=O)N(CC(=O)N(CC(N)=O)C(C)CC)C(C)CC)CC(C)O)CC(C)O)C(C)CC)C(C)CC)C(C)CC)CC(C)O)C(C)CC (stereo not drawn) [Compound 71, Nsb-Nsb-Nhp-Nsb-Nsb-Nsb-Nhp-Nhp-Nsb-Nsb]
Critical Ethylene Glycol Concentration [1]: 17.5% (ν/ν)

CC[C@@H](C)NCC(=O)N(CC(=O)N(CC(=O)N(CC(=O)N(CC(=O)N(CC(=O)N(CC(=O)N(CC(=O)N(CC(=O)N(CC(N)=O)[C@H](C)CC)[C@H](C)CC)C[C@@H](C)O)C[C@@H](C)O)[C@H](C)CC)[C@H](C)CC)C[C@@H](C)O)C[C@@H](C)O)[C@H](C)CC [Compound 77, Nbr-Nbr-Nrh-Nrh-Nbr-Nbr-Nrh-Nrh-Nbr-Nbr]
Critical Ethylene Glycol Concentration [1]: 15.0% (ν/ν)

CCC(C)NCC(=O)N(CC(=O)N(CC(=O)N(CC(=O)N(CC(=O)N(CC(=O)N(CC(=O)N(CC(=O)N(CC(=O)N(CC(=O)N(CC(=O)N(CC(=O)N(CC(=O)N(CC(=O)N(CC(=O)N(CC(=O)N(CC(=O)N(CC(=O)N(CC(=O)N(CC(=O)N(CC(=O)N(CC(N)=O)C(C)CC)C(C)CC)CC(C)O)CC(C)O)C(C)CC)C(C)CC)CC(C)O)CC(C)O)C(C)CC)C(C)CC)CC(C)O)CC(C)O)C(C)CC)C(C)CC)CC(C)O)CC(C)O)C(C)CC)C(C)CC)CC(C)O)CC(C)O)C(C)CC (stereo not drawn) [Compound 85, Nsb-Nsb-Nhp-Nhp-Nsb-Nsb-Nhp-Nhp-Nsb-Nsb-Nhp-Nhp-Nsb-Nsb-Nhp-Nhp-Nsb-Nsb-Nhp-Nhp-Nsb-Nsb]
EG required to permit vitrification [1]: required significantly less EG in order to permit vitrification | Critical Ethylene Glycol Concentration [1]: 10.0% (ν/ν)
